# Patent publication US11208419B2, “Phenylbenzofuran compound, preparation method therefor, composition containing the same and medical application thereof” (Guangxi Botanical Garden of Medicinal Plants, priority 2018, dated 2021)
# How the values were obtained:
# Assay type in all cases: cell-based
# [1] = test system: nasopharyngeal carcinoma cell CNE-1; assay: MTT anti-tumor experiment in vitro, inhibition of nasopharyngeal carcinoma cell CNE-1
# Method: (§1) Experiment 1, anti-tumor experiment of MTT in vitro
# Inhibition experiment of nasopharyngeal carcinoma cell CNE-1
# (§2) F1, 0.25% trypsin was added to nasopharyngeal carcinoma cell CNE-1 in the logarithmic growth phase for cell dissociation until adherent cells were failed off. Cell suspension containing 2×10^4 nasopharyngeal carcinoma cells CNE-1 per mL was prepared.
# (§3) F2, a 96-well plate was taken, one row of the 96-well plate was set as a blank group, 9 rows were set as the experimental group 1, one row was set as the experimental group 2, and one row was set as the negative control group, wherein 6 wells in the middle of each row were used for the experiment and was added of 100 μL of RPMI-1640 medium, wherein the medium of negative control group contained 1% DMSO.
# (§4) F3, 100 μL of cell suspension was added to each well of the blank group, the experimental group 1, the experimental group 2, and the negative control group. Then, the 96-well plate was placed in an incubator at 37 degree Celsius, 5% CO2, and 95% humidity, and cultured in the incubator for 12 hours. 100 μL phenylbenzofuran compound (phenylbenzofuran compound of embodiment 3) with a concentration was added to wells of each row of 9 rows in the experimental group 1, ie, 10 μg/mL, 20 μg/mL, 30 μg/mL, 40 μg/mL, 50 μg/mL, 60 μg/mL, 70 μg/mL, 80 μg/mL, and 90 μg/mL, wherein the concentration of phenylbenzofuran compound of wells in the same row was equal. As a parallel experiment, cisplatin (80 μg/mL, 100 μL) was added to wells of a row in the experimental group 2. Then, the 96-well plate was placed in an incubator at 37 degree Celsius, 5% CO2, and 95% humidity, and cultured in the incubator for 48 hours. MTT (5 mg/mL, 20 μL) was added to each well. Then, the 96-well plate was placed in an incubator at 37 degree Celsius, 5% CO2, and 95% humidity, and cultured in the incubator for 4 hours. The supernatant as removed by a pipette tip, 150 μL of DMSO was added, and the mixture was shaken for 10 minutes in a micro shaker to cause complete dissolution of crystal. The OD value of each well was measured at a wavelength of 570 nm by a microplate reader, and the IC50 value was calculated. That is, the concentration when the inhibition rate of the cells reached 50% was the IC50 value.
# Proliferation rate of CNE-1 cell=(average of experimental group-average of blank control group)/(average of negative control group-average of blank control group)×100%.
# Inhibition rate of CNE-1 cell=[…] of CNE-1 cell.
# [2] = test system: nasopharyngeal carcinoma cell CNE-2; assay: MTT anti-tumor experiment in vitro, inhibition of nasopharyngeal carcinoma cell CNE-2
# Method: as §1, §2, §3, §4
# Inhibition experiment of nasopharyngeal carcinoma cell CNE-2
# The experimental procedure of the inhibition experiment of nasopharyngeal carcinoma cell CNE-2 was the same as that of the inhibition experiment of nasopharyngeal carcinoma cell CNE-1, except that the nasopharyngeal carcinoma cell CNE-1 was replaced with the nasopharyngeal carcinoma cell CNE-2.
# [3] = test system: nasopharyngeal carcinoma cell CNE-1; assay: MTT anti-tumor experiment in vitro, inhibition of nasopharyngeal carcinoma cell CNE-1; conditions: 100 μg/mL, 48 hours, read-out: Inhibition rate of nasopharyngeal carcinoma cells (%) CNE-1
# [4] = test system: nasopharyngeal carcinoma cell CNE-2; assay: MTT anti-tumor experiment in vitro, inhibition of nasopharyngeal carcinoma cell CNE-2; conditions: Homo sapiens, 100 μg/mL, 48 hours, read-out: Inhibition rate of nasopharyngeal carcinoma cells (%) CNE-2
structure (smiles),measurement,setting,value
"N.N.[Cl][Pt][Cl] [Cisplatin, cisplatin, reference compound]",Inhibition rate of nasopharyngeal carcinoma cells (%) CNE-1,"[1]; 80 μg/mL, 48 hours, MTT",94.21 ± 0.18%
same,Inhibition rate of nasopharyngeal carcinoma cells (%) CNE-2,"[2]; 80 μg/mL, 48 hours, MTT",97.37 ± 0.49%
Oc1ccc(-c2cc3cc4c(cc3o2)OCO4)c(O)c1 [Phenylbenzofuran compound],inhibition at 10 µg/mL,"[1]; 10 μg/mL, 48 hours, MTT, read-out: Inhibition rate of nasopharyngeal carcinoma cells (%) CNE-1",25 ± 0.07%
same,inhibition at 20 µg/mL,"[1]; 20 μg/mL, 48 hours, MTT, read-out: Inhibition rate of nasopharyngeal carcinoma cells (%) CNE-1",37.57 ± 0.03%
same,inhibition at 30 µg/mL,"[1]; 30 μg/mL, 48 hours, MTT, read-out: Inhibition rate of nasopharyngeal carcinoma cells (%) CNE-1",45.52 ± 0.07%
same,inhibition at 40 µg/mL,"[1]; 40 μg/mL, 48 hours, MTT, read-out: Inhibition rate of nasopharyngeal carcinoma cells (%) CNE-1",60.37 ± 0.06%
same,inhibition at 50 µg/mL,"[1]; 50 μg/mL, 48 hours, MTT, read-out: Inhibition rate of nasopharyngeal carcinoma cells (%) CNE-1",68.5 ± 0.09%
same,inhibition at 60 µg/mL,"[1]; 60 μg/mL, 48 hours, MTT, read-out: Inhibition rate of nasopharyngeal carcinoma cells (%) CNE-1",75.01 ± 0.13%
same,inhibition at 70 µg/mL,"[1]; 70 μg/mL, 48 hours, MTT, read-out: Inhibition rate of nasopharyngeal carcinoma cells (%) CNE-1",85.83 ± 0.06%
same,inhibition at 80 µg/mL,"[1]; 80 μg/mL, 48 hours, MTT, read-out: Inhibition rate of nasopharyngeal carcinoma cells (%) CNE-1",97.02 ± 0.11%
same,inhibition at 90 µg/mL,"[1]; 90 μg/mL, 48 hours, MTT, read-out: Inhibition rate of nasopharyngeal carcinoma cells (%) CNE-1",97.81 ± 0.06%
same,IC50,"[1]; CNE-1, 48 hours, read-out: concentration at which the inhibition rate reaches half inhibition growth effect",20 µg/mL
same,inhibition at 10 µg/mL,"[2]; Homo sapiens, CNE-2, 10 μg/mL, 48 hours, MTT, read-out: Inhibition rate of nasopharyngeal carcinoma cells (%) CNE-2",28.4 ± 0.36%
same,inhibition at 20 µg/mL,"[2]; Homo sapiens, CNE-2, 20 μg/mL, 48 hours, MTT, read-out: Inhibition rate of nasopharyngeal carcinoma cells (%) CNE-2",43.61 ± 0.29%
same,inhibition at 30 µg/mL,"[2]; Homo sapiens, CNE-2, 30 μg/mL, 48 hours, MTT, read-out: Inhibition rate of nasopharyngeal carcinoma cells (%) CNE-2",48.5 ± 0.6%
same,inhibition at 40 µg/mL,"[2]; Homo sapiens, CNE-2, 40 μg/mL, 48 hours, MTT, read-out: Inhibition rate of nasopharyngeal carcinoma cells (%) CNE-2",75.18 ± 0.09%
same,inhibition at 50 µg/mL,"[2]; Homo sapiens, CNE-2, 50 μg/mL, 48 hours, MTT, read-out: Inhibition rate of nasopharyngeal carcinoma cells (%) CNE-2",84.42 ± 0.44%
same,inhibition at 60 µg/mL,"[2]; Homo sapiens, CNE-2, 60 μg/mL, 48 hours, MTT, read-out: Inhibition rate of nasopharyngeal carcinoma cells (%) CNE-2",95.13 ± 0.22%
same,inhibition at 70 µg/mL,"[2]; Homo sapiens, CNE-2, 70 μg/mL, 48 hours, MTT, read-out: Inhibition rate of nasopharyngeal carcinoma cells (%) CNE-2",97.27 ± 0.6%
same,inhibition at 80 µg/mL,"[2]; Homo sapiens, CNE-2, 80 μg/mL, 48 hours, MTT, read-out: Inhibition rate of nasopharyngeal carcinoma cells (%) CNE-2",98.78 ± 0.09%
same,inhibition at 90 µg/mL,"[2]; Homo sapiens, CNE-2, 90 μg/mL, 48 hours, MTT, read-out: Inhibition rate of nasopharyngeal carcinoma cells (%) CNE-2",98.82 ± 0.44%
same,IC50,"[2]; Homo sapiens, CNE-2, 48 hours, read-out: concentration at which the inhibition rate reaches half inhibition growth effect",15 µg/mL
same,inhibition at 100 µg/mL,[3],97.41 ± 0.02%
same,inhibition at 100 µg/mL,[4],98.64 ± 0.22%
